From ChEMBL document CHEMBL1221224, “Inhibition of Wnt signaling by Dishevelled PDZ peptides” (Nat Chem Biol, 2009)
Each block holds one compound with its values, some of them ahead of it. Calls of active or inactive are those of the source. No cut-off for these calls is given here. Where a SMILES comes first, the peptide text is derived from it.

Columns and labels:
[1] = biological target: T1, Segment polarity protein dishevelled homolog DVL-2 (Homo sapiens) (UniProt O14641); assay: (§1) Binding affinity at Dvl2 PDZ domain after 15 mins by fluorescence polarization assay
T1 sequence (whole entry): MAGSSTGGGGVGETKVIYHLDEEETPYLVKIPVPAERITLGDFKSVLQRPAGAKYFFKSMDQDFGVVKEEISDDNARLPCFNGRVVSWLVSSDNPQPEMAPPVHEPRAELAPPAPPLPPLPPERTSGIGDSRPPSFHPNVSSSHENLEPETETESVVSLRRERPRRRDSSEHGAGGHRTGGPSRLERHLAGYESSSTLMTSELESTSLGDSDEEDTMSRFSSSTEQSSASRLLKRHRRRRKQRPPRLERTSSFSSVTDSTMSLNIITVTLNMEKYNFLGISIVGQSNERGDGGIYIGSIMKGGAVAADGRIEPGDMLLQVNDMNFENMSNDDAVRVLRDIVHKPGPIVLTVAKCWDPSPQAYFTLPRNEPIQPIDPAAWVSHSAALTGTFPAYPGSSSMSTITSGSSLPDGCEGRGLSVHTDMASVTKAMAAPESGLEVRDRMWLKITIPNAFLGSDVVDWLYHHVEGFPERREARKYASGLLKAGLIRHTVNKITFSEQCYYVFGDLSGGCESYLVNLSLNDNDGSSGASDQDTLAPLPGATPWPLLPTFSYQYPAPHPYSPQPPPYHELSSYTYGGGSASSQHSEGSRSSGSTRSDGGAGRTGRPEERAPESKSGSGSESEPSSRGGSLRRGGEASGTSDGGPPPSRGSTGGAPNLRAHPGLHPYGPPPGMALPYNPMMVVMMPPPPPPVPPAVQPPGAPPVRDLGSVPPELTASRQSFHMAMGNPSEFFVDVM

[2] = biological target: T2, Segment polarity protein dishevelled homolog DVL-2 (Homo sapiens, UniProt O14641); assay: as §1
T2 sequence (O14641 whole entry): T1 sequence (whole entry)

[3] = biological target: T3, Segment polarity protein dishevelled homolog DVL-3 (Homo sapiens) (UniProt Q92997); assay: Binding affinity at Dvl3 in human HEK293S lysate after 15 mins by pulldown and Western blot assays
T3 sequence (whole entry): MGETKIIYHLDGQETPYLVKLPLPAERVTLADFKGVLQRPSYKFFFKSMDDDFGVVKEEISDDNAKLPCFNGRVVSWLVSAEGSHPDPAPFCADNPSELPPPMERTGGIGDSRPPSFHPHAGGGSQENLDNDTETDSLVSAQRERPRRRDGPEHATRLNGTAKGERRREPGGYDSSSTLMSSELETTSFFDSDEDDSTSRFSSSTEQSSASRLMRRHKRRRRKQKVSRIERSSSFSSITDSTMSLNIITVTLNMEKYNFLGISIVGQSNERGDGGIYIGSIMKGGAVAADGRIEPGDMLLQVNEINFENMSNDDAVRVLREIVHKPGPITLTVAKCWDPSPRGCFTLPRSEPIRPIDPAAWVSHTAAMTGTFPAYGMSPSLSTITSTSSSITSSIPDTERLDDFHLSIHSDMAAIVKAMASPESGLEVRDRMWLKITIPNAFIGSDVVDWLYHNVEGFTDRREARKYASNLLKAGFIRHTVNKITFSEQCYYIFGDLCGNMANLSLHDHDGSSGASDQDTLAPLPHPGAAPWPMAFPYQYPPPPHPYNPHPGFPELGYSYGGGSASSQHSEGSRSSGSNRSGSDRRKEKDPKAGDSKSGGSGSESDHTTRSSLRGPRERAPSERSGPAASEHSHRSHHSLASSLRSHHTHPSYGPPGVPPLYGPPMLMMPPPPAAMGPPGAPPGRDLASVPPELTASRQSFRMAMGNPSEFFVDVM

[4] = Inhibition of Dvl mediated Wnt3a/TCF signaling in human HEK293S cells after 18 hrs by TOPglow reporter assay
[5] = Cytotoxicity in human HEK293S cells assessed as cell viability at 33 uM after 18 hrs by differential interference contrast microscopy; format: cell-based
[6] = tested on: HEK293; assay: Inhibition of Dvl mediated Wnt3a signaling in human HEK293 cells assessed as […] accumulation at 10 uM after 18 hrs by Western blot method; format: cell-based
[7] = tested on: HCT-15; assay: Inhibition of Dvl mediated Wnt/TCF signaling in human HCT15 after 18 hrs by TOPglow reporter assay; format: cell-based
[8] = Drug uptake in human HEK293S cells after 1 hr by time-lapse microscopy; format: ADME, cell-based
[9] = biological target: T4, Catenin beta-1 (Homo sapiens) (UniProt P35222); assay: Inhibition of […] mediated […]/TCF reporter signaling in human HEK293S at 20 uM after 18 hrs by TOPglow reporter assay; format: functional
T4 sequence (whole entry): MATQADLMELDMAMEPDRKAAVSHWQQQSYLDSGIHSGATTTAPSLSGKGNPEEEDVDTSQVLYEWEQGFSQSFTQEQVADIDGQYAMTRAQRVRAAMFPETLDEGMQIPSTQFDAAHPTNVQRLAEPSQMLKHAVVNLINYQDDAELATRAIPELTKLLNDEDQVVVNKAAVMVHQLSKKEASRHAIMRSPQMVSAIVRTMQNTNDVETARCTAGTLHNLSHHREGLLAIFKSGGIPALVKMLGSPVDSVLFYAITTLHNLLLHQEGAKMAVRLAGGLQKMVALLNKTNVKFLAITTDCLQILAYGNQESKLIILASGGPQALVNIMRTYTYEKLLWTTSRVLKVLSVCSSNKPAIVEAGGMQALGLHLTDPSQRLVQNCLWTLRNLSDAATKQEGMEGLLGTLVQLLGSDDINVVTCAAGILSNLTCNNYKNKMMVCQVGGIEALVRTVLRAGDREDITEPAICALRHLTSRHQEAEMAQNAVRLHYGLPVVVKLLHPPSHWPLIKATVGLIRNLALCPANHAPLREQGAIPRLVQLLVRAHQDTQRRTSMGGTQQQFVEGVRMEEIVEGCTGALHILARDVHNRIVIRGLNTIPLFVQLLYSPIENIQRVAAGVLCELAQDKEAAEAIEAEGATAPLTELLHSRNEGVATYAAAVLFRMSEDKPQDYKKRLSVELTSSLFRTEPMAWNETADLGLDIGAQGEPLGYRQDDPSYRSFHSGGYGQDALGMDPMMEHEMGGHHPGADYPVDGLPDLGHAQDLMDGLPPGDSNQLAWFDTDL

[10] = biological target: T5, Segment polarity protein dishevelled homolog DVL-1 (Homo sapiens) (UniProt O14640); assay: Inhibition of Dvl1 overexpressed in human HEK293S assessed as inhibition of […]/TCF reporter signaling at 20 uM after 18 hrs by TOPglow reporter assay
T5 sequence (whole entry): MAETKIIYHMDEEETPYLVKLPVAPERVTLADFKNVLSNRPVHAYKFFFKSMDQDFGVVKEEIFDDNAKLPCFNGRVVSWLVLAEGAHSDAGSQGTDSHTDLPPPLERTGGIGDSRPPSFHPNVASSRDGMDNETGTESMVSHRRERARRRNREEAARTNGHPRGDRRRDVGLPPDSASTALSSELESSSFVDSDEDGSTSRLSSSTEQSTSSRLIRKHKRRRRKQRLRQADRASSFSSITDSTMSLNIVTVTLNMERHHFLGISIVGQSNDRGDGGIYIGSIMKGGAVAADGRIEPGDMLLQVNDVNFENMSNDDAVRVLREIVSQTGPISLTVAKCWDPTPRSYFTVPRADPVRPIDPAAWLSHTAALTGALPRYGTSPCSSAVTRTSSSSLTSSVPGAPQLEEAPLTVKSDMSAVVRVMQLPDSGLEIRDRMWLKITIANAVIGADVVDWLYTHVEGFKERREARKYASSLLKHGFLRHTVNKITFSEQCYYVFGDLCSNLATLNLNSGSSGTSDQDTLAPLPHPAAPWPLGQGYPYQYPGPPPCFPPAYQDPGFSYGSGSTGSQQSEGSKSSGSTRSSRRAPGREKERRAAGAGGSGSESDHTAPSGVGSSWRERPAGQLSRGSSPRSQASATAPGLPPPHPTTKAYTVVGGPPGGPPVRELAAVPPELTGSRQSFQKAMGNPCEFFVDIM

[11] = biological target: T3, Segment polarity protein dishevelled homolog DVL-3 (Homo sapiens); assay: Inhibition of Dvl3 overexpressed in human HEK293S assessed as inhibition of […]/TCF reporter signaling at 20 uM after 18 hrs by TOPglow reporter assay
[12] = biological target: T1, Segment polarity protein dishevelled homolog DVL-2 (Homo sapiens); assay: Inhibition of Dvl2 overexpressed in human HEK293S assessed as inhibition of […]/TCF reporter signaling at 20 uM after 18 hrs by TOPglow reporter assay
[13] = Cytotoxicity in human HEK293S cells assessed as cell viability at 300 uM after 18 hrs by differential interference contrast microscopy; format: cell-based
[14] = Cytotoxicity in human HEK293S cells assessed as cell viability at 100 uM after 18 hrs by differential interference contrast microscopy; format: cell-based

Compound: CC[C@H](C)[C@H](NC(=O)[C@H](Cc1c[nH]c2ccccc12)NC(=O)CNC(=O)[C@H](Cc1ccc(O)cc1)NC(=O)[C@H](CC(=O)O)NC(=O)[C@H](CCCCN)NC(=O)[C@@H](N)Cc1c[nH]c2ccccc12)C(=O)N[C@@H](CC(=O)O)C(=O)O (H-WKDYGWID-OH)
Ki [2]: 1.2 µM

Compound: NCCCC[C@H](NC(=O)[C@@H](N)Cc1c[nH]c2ccccc12)C(=O)N[C@@H](Cc1c[nH]c2ccccc12)C(=O)N[C@@H](Cc1ccc(O)cc1)C(=O)NCC(=O)N[C@@H](Cc1c[nH]c2ccccc12)C(=O)N[C@@H](Cc1ccccc1)C(=O)O (H-WKWYGWF-OH)
Ki [2]: 0.7 µM

Compound: CC[C@H](C)[C@H](NC(=O)[C@H](CC(=O)O)NC(=O)[C@H](CO)NC(=O)[C@H](Cc1c[nH]c2ccccc12)NC(=O)[C@H](CC(C)C)NC(=O)[C@@H](NC(=O)[C@@H](NC(=O)[C@H](CCC(=O)O)NC(=O)CN)[C@@H](C)CC)C(C)C)C(=O)O (H-GEIVLWSDI-OH)
Ki [2]: 4.6 µM

Further lines, with some results ahead:

Activity [1]: Active
Compound: CC[C@H](C)[C@H](NC(=O)[C@H](Cc1c[nH]c2ccccc12)NC(=O)[C@@H](NC(=O)[C@H](CCC(=O)O)NC(=O)[C@H](CC(N)=O)NC(=O)CNC(=O)[C@@H](N)CO)C(C)C)C(=O)N[C@@H](CC(=O)O)C(=O)NCC(=O)N1CCC[C@H]1C(=O)O (H-SGNEVWIDGP-OH)

Activity [3]: Active | IC50 [4]: 11 µM | Drug uptake [8]: Active | inhibition [9]: inactive | inhibition [10]: Active | inhibition [11]: Active | inhibition [12]: Active
Compound: CC[C@H](C)[C@H](NC(=O)[C@H](CCCCN)NC(=O)[C@@H](NC(=O)[C@H](CCC(N)=O)NC(=O)[C@H](CCCNC(=N)N)NC(C)=O)[C@@H](C)CC)C(=O)N[C@@H](Cc1c[nH]c2ccccc12)C(=O)N[C@@H](Cc1ccccc1)C(=O)N[C@@H](CCC(N)=O)C(=O)N[C@@H](CC(N)=O)C(=O)N[C@@H](CCCNC(=N)N)C(=O)N[C@@H](CCCNC(=N)N)C(=O)N[C@@H](CCSC)C(=O)N[C@@H](CCCCN)C(=O)N[C@@H](Cc1c[nH]c2ccccc12)C(=O)N[C@@H](CCCCN)C(=O)N[C@@H](CCCCN)C(=O)NCC(=O)NCC(=O)NCC(=O)N[C@@H](CCC(=O)O)C(=O)N[C@H](C(=O)N[C@H](C(=O)N[C@@H](CC(C)C)C(=O)N[C@@H](Cc1c[nH]c2ccccc12)C(=O)N[C@@H](CO)C(=O)N[C@@H](CC(=O)O)C(=O)N[C@H](C(=O)N1CCC[C@H]1C(N)=O)[C@@H](C)CC)C(C)C)[C@@H](C)CC
Activity [5]: Non-toxic | inhibition [6]: Active | inhibition [7]: inactive

IC50 [4]: > 100 µM
Compound: CCCCC(O)c1[nH]c2cc(C)c(C(=O)O)cc2c1CCc1ccccc1 (configuration not stated)
Activity [13]: Toxic | Activity [14]: Toxic
